US11292789B1 (priority 2020, dated 2022)

Assays:
α-glucosidase = α-glucosidase (Saccharomyces cerevisiae, UniProt P53341); assay type: biochemical; details: concentrations 0.01 to 0.25 mg/ml, FIG. 7
Experimental: Next, 20 μl of P-NPG (5 mM) was added as a substrate and further incubated at 37° C. for 20 minutes. This reaction was stopped by adding 50 μl of Na2CO3 (0.1 M). […] Each experiment was performed three times. An inhibition rate (%) was evaluated using the following equation (inhibition (%)=[1−(sample/control)]×100).

[1] = tested on: 12-day-old cortical cell cultures; experiment: Nerve cell protection against excitotoxin damage, MTT assay; assay type: cell-based; details: for Cell viability from excitotoxin-induced neuron toxicity: cortical cell cultures pre-treated 1 hour, then glutamate, AMPA, NMDA, kinate, MTT after one day
Experimental: Nerve cell protection ability was evaluated using Quinazole and MDPX-V2021 prepared according to Example 1 and MK-801 prepared according to Comparative Example 3.
To evaluate the neuroprotective activity of Quinazole, MDPX-V2021 and MK-801 against damage due to excitotoxin, each of the samples was dissolved in ethanol (final concentration, 0.1%), and a 12-day-old cortical cell cultures were used. The cultures were respectively pre-treated with the samples for 1 hour and then exposed to 20 μM glutamate, 80 μM α-amino-3-hydroxy-5-methyl-4-isoxazolepropionic acid, 40 μM N-Methyl-D-aspartic acid and 200 μM kinate. Next, each of the cultures was additionally cultured in neurobasal medium for one day, and the survival rate of the nerve cells was measured by MTT assay.
MTT tetrazolium (1 mg/mL) was added to neurons grown in 96-well plate, and then cultured at 37° C. for 1 hour. The reaction medium was carefully sucked, and then DMSO was added thereto to dissolve the blue formazan product. The survival rate of the nerve cells was estimated by quantifying an available formazan at 540 nm using a multi-mode plate reader. The test was repeated 3 times, and the cell viability was calculated according to 100×(excitotoxin OD+sample treatment-excitotoxin treatment OD)/(control OD-excitotoxin treatment OD).

Sequence of α-glucosidase (P53341 whole entry, looked up): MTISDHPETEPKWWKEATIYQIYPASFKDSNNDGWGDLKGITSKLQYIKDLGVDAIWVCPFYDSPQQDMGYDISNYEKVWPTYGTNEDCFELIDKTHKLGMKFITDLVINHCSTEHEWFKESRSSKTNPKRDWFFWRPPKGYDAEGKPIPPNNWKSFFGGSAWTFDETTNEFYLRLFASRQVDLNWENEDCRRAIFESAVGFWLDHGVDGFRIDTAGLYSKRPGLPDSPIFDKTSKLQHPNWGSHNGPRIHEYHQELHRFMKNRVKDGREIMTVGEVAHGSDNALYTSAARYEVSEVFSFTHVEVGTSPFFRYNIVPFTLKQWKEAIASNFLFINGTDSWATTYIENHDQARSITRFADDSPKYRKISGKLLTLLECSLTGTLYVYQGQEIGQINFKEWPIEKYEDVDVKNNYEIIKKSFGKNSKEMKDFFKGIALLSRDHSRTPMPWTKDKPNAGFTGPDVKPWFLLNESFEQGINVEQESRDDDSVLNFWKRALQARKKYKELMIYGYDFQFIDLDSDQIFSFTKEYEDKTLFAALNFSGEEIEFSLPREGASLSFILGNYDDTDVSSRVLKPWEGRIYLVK

SMILES | inhibitory activity against α-glucosidase (in words) (α-glucosidase) | Cell viability from excitotoxin-induced neuron toxicity [1] [%] | cell viability compared with Quinazole (in words) ([1]; sample concentration range of 0.1 to 50 μM, FIG. 8)
COc1ccc(-n2cnc3ccc(OC)cc3c2=O)c(COC(C)(C)C)c1 [MDPX-V2021, 3-{2-[(tert-butoxy)methyl]-4-methoxyphenyl}-6-methoxy-3,4-dihydroquinazolin-4-one] | has inhibitory activity against α-glucosidase | 84.083 ± 3.482 | significantly higher
CC12NC(Cc3ccccc31)c1ccccc12 (centres unmarked) [MK-801, reference compound] |  | 78.830 ± 0.567 | 
COc1ccc(-n2cnc3ccc(OC)cc3c2=O)c(CO)c1 [Quinazol A, Dictyoquinazol A, reference compound] |  | 68.910 ± 1.406 | 
